“Also recorded” adds a separate entry of the source.
Assays:
[1] = target: T1, recombinant AaDBR2 (artemisinic aldehyde double bond reductase) (Artemisia annua, UniProt C5H429, A226G/L231G/N16K); test: In vitro enzyme assays of recombinant AaDBR2 with potential substrates, GC/MS analysis; format: biochemical; conditions: for activity of AaDBR2 on the substance as substrate: tested as potential substrate, with NADPH, GC/MS
T1 construct: This ORF encodes a 415-amino acid protein with a predicted molecular mass of 45.6 kDa; made in house; host or cells: E. coli Rosetta 2(DE3)
Method: The purified recombinant His-tagged AaDBR2 protein was assayed with artemisinic aldehyde, followed by gas chromatography/mass spectrometry analysis. Enzyme reactions were initiated by adding the 0.4 mM artemisinic aldehyde to 300 μL reaction mixture containing 50 mM Tris-HCl (pH 8.0), 1 mM NADPH, 2 mM DTT and 2.0 μg of AaDBR2. Negative controls were carried out with boiled proteins, without NADPH. Reactions were allowed to proceed for 30 minutes at 30° C. with shaking, stopped by adding 15 μL acetic acid and extracted with 100 μL ethyl acetate. The ethyl acetate extracts were pooled and partially evaporated prior to GC-MS analysis. The reaction products were confirmed by comparing GC retention time and MS data with those of synthetic (11R)-dihydroartemisinic aldehyde. For quantification, octadecane was used as an internal standard.
(§1) For comparison of the catalytic properties of AaDBR2 against other substrates, reaction mixtures were pre-warmed to 30° C., and reactions were initiated by addition of AaDBR2. The pH optimum of the purified AaDBR2 was determined to be 7.5 in assay that included one of three 50 mM buffers (MES, HEPES, and Tris-HCl) adjusted to between pH 5.5 and 9.0 in 0.5-unit intervals and 0.5 mM artemisinic aldehyde and 0.48 μg of purified recombinant AaDBR2. Apparent kinetic parameters were determined under conditions that limited conversion to less than 10% as follows. Concentrations of artemisinic aldehyde (6-250 μM, 0.24 μg of AaDBR2, 2 min), 2-cyclohexen-1-one (80-10,000 μM, 0.48 μg of AaDBR2, 10 min), and (+)-carvone (20-5000 μM, 0.48 μg AaDBR2, 10 min) were varied in the presence of 1 mM NADPH. To assess cofactor specificity, concentrations of NADPH (10-640 μM, 0.48 μg of AaDBR2, 2 min) and NADH (0.2-13 mM, 1.9 μg of AaDBR2, 2 min) were varied in the presence of 0.5 mM artemisinic aldehyde. The ethyl acetate extracts from triplicate reaction mixtures were directly analyzed by GC/MS. Octadecane was used as an internal standard to quantify the products formed from the reactions using response factors determined using standards for each enzyme product. Km and kcat values were determined by nonlinear regression analysis using GraphPad™ software (GraphPad™ Software Inc., San Diego, Calif.).

[2] = target: T1, recombinant AaDBR2 (artemisinic aldehyde double bond reductase); test: Apparent kinetic parameters of purified recombinant AaDBR2; format: biochemical
Method: as §1

Plasmodium falciparum = conditions: more active than artesunate; cited from earlier work
[3] = substrate varied in the presence of 1 mM NADPH, 30° C.
[4] = cofactor varied in the presence of 0.5 mM artemisinic aldehyde

T1 sequence (C5H429 other isoform, or with tags, fused parts or gaps N16K/A226G/L231G): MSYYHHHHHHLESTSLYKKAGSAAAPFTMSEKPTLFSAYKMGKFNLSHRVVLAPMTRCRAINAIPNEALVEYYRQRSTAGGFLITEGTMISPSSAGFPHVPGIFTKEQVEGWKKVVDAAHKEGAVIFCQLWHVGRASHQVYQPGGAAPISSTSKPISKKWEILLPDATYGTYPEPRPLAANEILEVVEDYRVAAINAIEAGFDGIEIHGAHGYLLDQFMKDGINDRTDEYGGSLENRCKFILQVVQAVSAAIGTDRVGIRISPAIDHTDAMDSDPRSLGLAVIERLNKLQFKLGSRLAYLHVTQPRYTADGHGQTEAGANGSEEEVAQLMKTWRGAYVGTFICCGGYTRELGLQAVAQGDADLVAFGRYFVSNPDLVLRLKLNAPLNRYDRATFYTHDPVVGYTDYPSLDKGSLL

Compound | activity of AaDBR2 on the substance as substrate [1] | also measured
O=C1C=CCCC1 [2-cyclohexen-1-one] | has activity | –
CCCCCC/C=C/C=O [2E-nonenal] | low activity; also recorded: No activity was detected | rate relative to the rate for artemisinic aldehyde ([1]; AaDBR2 substrate, FIG. 8): about 12%
C=C(C)[C@H]1CC=C(C)C(=O)C1 [(+)-carvone, (+)-Carvone] | has activity | Km [2, 3]: 650 µM; kcat [2, 3]: 0.86 s⁻¹
CC(C)=C1CC[C@@H](C)CC1=O [(+)-pulegone] | No activity was detected | –
CC1=CC[C@@H]2C[C@H]1C2(C)C [(+)-α-pinene] | No activity was detected | –
C[C@H]1[C@H](N2CCS(=O)(=O)CC2)O[C@@H]2O[C@@]3(C)CC[C@H]4[C@H](C)CC[C@@H]1[C@@]24OO3 [Artemisone] | – | activity relative to artesunate (Plasmodium falciparum): 10-30 fold
NC(=O)C1=CN([C@@H]2O[C@H](COP(=O)(O)OP(=O)(O)OC[C@H]3O[C@@H](n4cnc5c(N)ncnc54)[C@H](O)[C@@H]3O)[C@@H](O)[C@H]2O)C=CC1 [NADH] | – | Km [2, 4]: 770 µM; kcat [2, 4]: 1.3 s⁻¹; enzyme activity in the presence of the cofactor ([1]; preliminary experiments): active
NC(=O)C1=CN([C@@H]2O[C@H](COP(=O)(O)OP(=O)(O)OC[C@H]3O[C@@H](n4cnc5c(N)ncnc54)[C@H](OP(=O)(O)O)[C@@H]3O)[C@@H](O)[C@H]2O)C=CC1 [NADPH] | – | Km [2, 4]: 95 µM; kcat [2, 4]: 2.5 s⁻¹
C=C1C(=O)O[C@@]23[C@H]1CC[C@@H](C)[C@@H]2CC[C@@]1(C)O[C@@H]31 [arteannuin B, Arteannuin B] | No activity was detected | –
C=C(C(=O)O)[C@@H]1CC[C@@H](C)[C@@H]2CCC(C)=C[C@@H]21 [artemisinic acid] | No activity was detected | –
C=C(CO)[C@@H]1CC[C@@H](C)[C@@H]2CCC(C)=C[C@@H]21 [artemisinic alcohol, Artemisinic alcohol] | No activity was detected | –
C=C(C=O)[C@@H]1CC[C@@H](C)[C@@H]2CCC(C)=C[C@@H]21 [artemisinic aldehyde] | has activity | Km lower relative to 2-cyclohexen-1-one and (+)-carvone ([2]; Table 2 comparison): more than 30 fold; Km [2, 3]: 19 µM; kcat [2, 3]: 2.6 s⁻¹
C=C1C(=O)O[C@@H]2O[C@@]3(C)CC[C@H]4[C@H](C)CC[C@@H]1[C@@]24OO3 [artemisitene] | No activity was detected | –
COc1cc(/C=C/C=O)ccc1O [coniferyl aldehyde] | No activity was detected | –
C=C1C(=O)CC2(C(C)C)CC12 (stereo not drawn) [sabinone, Sabinone] | No activity was detected | –
